Here are results for one substance from patent US7727731B2, “Potent, selective and non toxic c-kit inhibitors” (AB Science, priority 2001, dated 2010).

Test [1] concerns the target T1, c-kit carrying the 814 mutation (Mus musculus, UniProt P05532, D818V).
T1 construct: expressed in transfected cells; host or cells: IC2 murine mast cell line
The test is described as follows: Proliferation test, IC2 D814V cells. To be noted: doses inferior to toxicity level (<10 μM). In kind it is cell-based, murine. As for the experimental part:
We have tested 37 compounds that are indolinone derivatives in different cell lines and successive screening to select interesting inhibitors. • Method: select the compounds which are effectively c-kit inhibitors (Table 1) Each compound has been tested at a high dose (10 μM) on cell expressing • c-kit carrying the 814 mutation • SCF activated c-kit wild • control cells cultivated in IL-3.
The effect of the 21 inhibitors has been tested at decreasing concentrations (10-10^−1-10^−2 μM) in order to reveal compounds that are able at 1 μM to inhibit proliferation of the IC2 D814V line while preserving response to another stimulus (IL-3, toxicity control).
The nine compounds selected have been tested at narrower doses: between 0.1 and 1 μM. At this stage, the three most efficient compounds at lower doses have been selected (≦0.6 μM): 11, 14 and 35.
(§1) Table set up according to CPM (Counts Per Minutes) percentage obtained after proliferation in absence of inhibitors as 100% (% CPM>80=−−/50<% CPM<80=−/20<% CPM <50=+/5<% CPM<20=+/%-CPM<5=++). All experiments were done in triplicate.

In test [2] the target is c-kit wild (Mus musculus, UniProt P05532). The test is described as follows: c-kit phosphorylation after immunoprecipitation, c-kit wild. In kind it is cell-based. As for the experimental part: (§2) First step: cellular proliferation to select molecules which are able to slowdown or stop cellular growth induced by c-kit activation. Here, SCF activated c-kit is used. Then, the effect of these molecules is analyzed by biochemistry techniques (immuno precipitations and western-blots), so that to determine if the inhibitor acts directly on the receptor c-kit or on other proteins, which are mediators of Kit signals. In a second step, a subset of molecules identified is selected in a cellular test on IL-3 dependant cells cultured in presence of IL-3. molecules that are not toxic are identified as potent specific c-kit inhibitors for a use in therapy.
Sequence of c-kit wild (P05532 25-975 isoform P05532-2 limits assumed): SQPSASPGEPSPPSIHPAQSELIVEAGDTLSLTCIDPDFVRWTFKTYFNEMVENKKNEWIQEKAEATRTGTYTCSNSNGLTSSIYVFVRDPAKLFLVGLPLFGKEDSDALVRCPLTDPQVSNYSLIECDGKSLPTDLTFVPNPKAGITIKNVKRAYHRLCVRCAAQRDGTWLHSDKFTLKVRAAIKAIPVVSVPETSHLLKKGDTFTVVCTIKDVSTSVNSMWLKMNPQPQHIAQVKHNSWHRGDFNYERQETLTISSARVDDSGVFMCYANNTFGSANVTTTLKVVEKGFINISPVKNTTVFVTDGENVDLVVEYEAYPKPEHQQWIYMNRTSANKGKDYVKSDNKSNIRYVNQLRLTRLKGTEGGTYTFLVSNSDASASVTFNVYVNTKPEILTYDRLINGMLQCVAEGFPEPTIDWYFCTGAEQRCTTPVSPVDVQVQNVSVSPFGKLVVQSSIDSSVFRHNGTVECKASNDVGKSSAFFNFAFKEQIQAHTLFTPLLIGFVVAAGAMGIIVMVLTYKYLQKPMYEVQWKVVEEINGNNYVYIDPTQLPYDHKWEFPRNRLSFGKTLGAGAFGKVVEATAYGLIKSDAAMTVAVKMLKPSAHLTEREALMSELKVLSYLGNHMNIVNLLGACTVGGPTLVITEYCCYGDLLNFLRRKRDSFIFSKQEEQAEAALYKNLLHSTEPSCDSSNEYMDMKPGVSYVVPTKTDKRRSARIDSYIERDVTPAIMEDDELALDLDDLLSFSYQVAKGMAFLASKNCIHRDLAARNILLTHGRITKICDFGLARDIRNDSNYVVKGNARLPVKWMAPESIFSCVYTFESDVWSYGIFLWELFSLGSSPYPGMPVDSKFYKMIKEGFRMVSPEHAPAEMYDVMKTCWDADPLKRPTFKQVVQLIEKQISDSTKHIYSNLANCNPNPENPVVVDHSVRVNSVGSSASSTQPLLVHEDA
(§3) The first step of c-kit activation consists of receptor phosphorylation on tyrosine residues. Thus, the phosphorylation state is a measure of receptor activation. By using specific antibodies, c-kit has been isolated by immunoprecipitation and c-kit phosphorylation has been determined using common procedures.

Test [3] addresses T2, FMA3 (deletion 7aa. juxtamembrane) (Mus musculus, UniProt P05532, DEL577-583).
T2 construct: endogenous in cells; host or cells: FMA3 mouse mastocytoma cells
The test is described as follows: Proliferation test, FMA3 cells. Type of test: cell-based. The conditions noted are these: doses inferior to toxicity level (<10 μM). The source says: (§4) Juxtamembrane Mutations • Ba/F3-KitΔ27 (transfected juxtamembrane mutation—identified at the Laboratory) • Ba/F3-KitG559 (transfected juxtamembrane mutation) • FMA3 (deletion 7aa. juxtamembrane identified in a mouse mastocytome)

For test [4], the system named is c-kit carrying one of the juxtamembrane mutations (Δ27). In words: Proliferation test, Ba/F3 Δ27 cells. In kind it is cell-based, murine. The conditions noted are these: doses inferior to toxicity level (<10 μM).
Description: (§5) Two types of cell lines carrying wild or mutated forms of c-kit are available lines derived from mastocytomes and the Ba/F3 cell model (cells depending on IL-3). In the Ba/F3 cells, the expression of c-kit removes the dependence vis-a-vis IL-3. Consequently, cDNA of wild or mutated murine c-kit has been introduced and these cells proliferate either in presence of SCF in case of c-kit wild or in absence of any growth factor in case of activated mutant c-kit.
as §4
Cells expressing c-kit carrying one of the juxtamembrane mutations (Δ27) were also used as a control.
as §1

Test [5] has as its system 814 mutant c-kit. The test is described as follows: c-kit phosphorylation after immunoprecipitation, 814 mutant. Type of test: cell-based. On the procedure:
as §2, §3

Test [6] concerns mutant in a human mast cell leukemia cell line (HMC-1, expressing a juxtamembrane mutation). To be noted: cited from earlier work.
Test [7] has as its system c-kit bearing juxtamembrane mutations. In words: c-kit phosphorylation after immunoprecipitation, juxtamembrane mutants. In kind it is cell-based. As for the experimental part: as §2, §3
In test [8] the target is T3, SCF activated c-kit wild (Mus musculus, UniProt P05532).
T3 construct: expressed in transfected cells; host or cells: Ba/F3 (murine, IL-3 dependent)
T3 sequence (P05532 25-975 isoform P05532-2 limits assumed): as above
In words: Proliferation test, Ba/F3 Kit cells with SCF. In kind it is cell-based, murine. The conditions noted are these: doses inferior to toxicity level (<10 μM). On the procedure:
as §2, §5
Preparation of cell lines • Ba/F3-Kit: Ba/F3 cells in which Kit gene, mutated or wild, has been introduced. They proliferate either in presence of Kit ligand (SCF) or in presence of IL-3. […]

T1 sequence (P05532 25-975 isoform P05532-2 D814V limits assumed): as the sequence (P05532 25-975 isoform P05532-2 limits assumed) above, with D790V counted along it
T2 sequence (P05532 with tags, fused parts or gaps isoform P05532-2 DEL573-579): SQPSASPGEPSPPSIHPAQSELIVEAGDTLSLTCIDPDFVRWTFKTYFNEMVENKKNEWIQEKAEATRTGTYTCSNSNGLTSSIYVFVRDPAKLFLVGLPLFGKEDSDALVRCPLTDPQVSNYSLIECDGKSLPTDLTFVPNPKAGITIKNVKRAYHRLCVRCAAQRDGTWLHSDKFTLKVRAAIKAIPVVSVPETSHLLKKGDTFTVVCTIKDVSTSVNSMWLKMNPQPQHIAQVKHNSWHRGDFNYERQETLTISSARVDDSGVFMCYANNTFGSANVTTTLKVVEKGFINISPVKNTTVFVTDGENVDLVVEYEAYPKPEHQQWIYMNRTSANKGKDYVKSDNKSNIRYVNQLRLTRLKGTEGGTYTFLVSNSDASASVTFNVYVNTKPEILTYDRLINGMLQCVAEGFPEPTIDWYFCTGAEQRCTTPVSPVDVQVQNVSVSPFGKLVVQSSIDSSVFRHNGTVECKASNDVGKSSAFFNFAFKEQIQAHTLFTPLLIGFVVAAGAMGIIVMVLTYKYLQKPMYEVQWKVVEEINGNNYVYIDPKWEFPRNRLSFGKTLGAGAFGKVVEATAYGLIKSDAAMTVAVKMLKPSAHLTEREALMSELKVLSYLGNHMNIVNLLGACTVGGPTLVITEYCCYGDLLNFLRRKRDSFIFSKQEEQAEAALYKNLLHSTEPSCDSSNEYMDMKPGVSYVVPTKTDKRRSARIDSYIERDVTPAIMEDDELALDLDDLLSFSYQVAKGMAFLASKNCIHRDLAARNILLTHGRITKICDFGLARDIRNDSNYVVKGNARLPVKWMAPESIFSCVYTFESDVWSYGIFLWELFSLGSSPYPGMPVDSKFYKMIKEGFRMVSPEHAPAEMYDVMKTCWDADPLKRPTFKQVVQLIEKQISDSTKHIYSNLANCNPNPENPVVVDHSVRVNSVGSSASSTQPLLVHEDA
Sequence of c-kit bearing juxtamembrane mutations (P05532 592-939 limits assumed, change not shown): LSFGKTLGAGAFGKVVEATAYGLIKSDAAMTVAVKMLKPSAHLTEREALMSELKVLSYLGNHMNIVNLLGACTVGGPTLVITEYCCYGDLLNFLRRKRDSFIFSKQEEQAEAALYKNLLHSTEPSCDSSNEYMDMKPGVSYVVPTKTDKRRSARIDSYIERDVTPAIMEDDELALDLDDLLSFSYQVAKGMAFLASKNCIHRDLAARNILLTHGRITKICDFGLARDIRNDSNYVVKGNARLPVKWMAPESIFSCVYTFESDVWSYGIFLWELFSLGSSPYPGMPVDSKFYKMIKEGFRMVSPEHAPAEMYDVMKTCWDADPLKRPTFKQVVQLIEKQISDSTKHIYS

Consider STI 571, for which the “Effect on proliferation of cells carrying 814 mutation, IC2” value in test [1] was “not the proliferation of cells carrying 814 mutation”. In test [2], the “Phosphorylation of c-kit wild” value is “considerably reduces the phosphorylation”. Also, in test [3], the “Effect on proliferation, juxtamembrane mutation FMA3” value is given as “inhibits totally the proliferation”. Further, the “Effect on proliferation, juxtamembrane mutation Δ27” value in test [4] is reported as “inhibits totally the proliferation”. Further, in test [5], the “Phosphorylation of the 814 mutant c-kit” value is on record as “is not reduced”. Also, in test [6], the “Inhibitory effect on kinase activity of HMC-1 mutant compared with ligand-dependent activation of the wild-type receptor” value is listed as “more potent inhibitory effect”. Moreover, the “Phosphorylation of c-kit bearing juxtamembrane mutations” value in test [7] is “considerably reduces the phosphorylation”. The “Effect on proliferation depending on c-kit wild” value in test [8] is given as “inhibits totally the proliferation”.
